Experimental data published in patent US9254334B2, “Polyamine derivatives” (CLSN Laboratories, Inc., priority 2009, dated 2016).

Tests used:
[1] = tested on: squamous cell carcinoma tumors; experiment: Tumor growth inhibition and survival after intratumoral formulated VEGF siRNA; format: in vivo, mice
Procedure: (§1) In this example tumors were implanted into the hind flanks of […] by injecting 5×10^5 squamous cell carcinoma cells. Tumors were allowed to grow until they reached a size of […]. Tumors were then injected with a commercially available siRNA targeting VEGF that was formulated with dioleoyl monoamine at a 5:1 N:P ratio or with a similarly formulated non-silencing control siRNA. The final concentration of siRNA was 0.3 mg/mL. A total of 30 μl of the formulated siRNA solution was injected into tumors and injections were repeated every 3-4 days for a total of 6 injections. The tumors from some animals were harvested 48 hours after the second formulated siRNA injection for transcript analysis.

VEGF protein = experiment: In vitro transfection of simVEGF siRNA complexes, supernatant mVEGF protein knockdown; format: cell-based, murine; settings: SCCVII cells, 0.5 μg complexed simVEGF siRNA, 6 h + 40 h
Procedure: (§2) The transfection activity of siRNA and dioleoyl monoamine delivery reagent conjugate complexes is determined in vitro. Transfection complexes containing simVEGF siRNA construct are prepared by methods previously described in Example 9. SCCVII cells (0.5×10^5 cells/well) are seeded into 24-well tissue culture plates in 10% FBS. Each well is incubated for 6 hours with 0.5 μg of complexed siRNA in a total volume of 250 μL of DMEM. When the incubation period is concluded, 250 μL of DMEM supplemented with 20% FBS is added to the transfected cells and incubated further for another 40 hours. At the end of the incubation period, supernatant mVEGF protein determinations are made.
as §2, with “siRNA complexes with” for “siRNA and”, “monoamine (Example 3) or methyl-dioleoyl monoamine (Example 3A)” for “monoamine”, “delivery reagents” for “delivery reagent conjugate complexes”, “previously described.” for “previously described in Example 9.”, “are made as described above.” for “are made.”

[2] = Controlled release of complexed Cav-1 siRNA from crosslinked alginate gel; format: physicochemical
Procedure: siRNA complexed with dioleoyl monoamine is formulated as described in Example 39 containing 50 μg Cav-1 siRNA and 1.4 μg dioleoyl monoamine in a volume of 50 μL. Sodium alginate (Type A) is dissolved in water to give a 2% solution. An alginate solution (100 μL) is added to a single well of a 96-well plate followed by 50 μL of the dioleoyl monoamine/Cav-siRNA solution. After thorough mixing, 50 μL of a 0.68 M CaCl2 solution is added to the previous mixture to crosslink the gel. One hundred μL of water or 0.1 M EDTA (which serves to break down the gel by complexing the Ca^2+ ions) is then added to ensure complete submersion of the gel in aqueous solution. At the prescribed time points, the supernatants are removed (200 μL) and replaced with fresh 200 μL water or 0.1 M EDTA. After 84 hours, all collected samples are assayed for Cav-1 siRNA content using qRT-PCR. The siRNA amounts collected at each time point are summed in order to determine amount released over time. In samples that have the addition of EDTA, 100% of the loaded dioleoyl monoamine formulated siRNA is released after 84 hours.

[3] = tested on: Caveolin-1 (Cav-1) transcript; experiment: Caveolin-1 transcript knockdown in lung and liver after single iv injection of formulated siRNA (qRTPCR); format: in vivo, mice; settings: 100 μg siRNA iv, 10:1 ratio, 48 h, normalized to β-actin, vs non-targeting siRNA control
Procedure: A total of 100 μg siRNA is injected in a final volume of 200 μL (0.5 mg/mL). […] Results (FIG. 3) indicate a significant decrease in target specific Cav-1 transcript levels in both lungs (76% knockdown) and livers (62% knockdown). For each group, n=5.

VEGF transcript = VEGF transcript knockdown in subcutaneous tumors after intratumoral injection of formulated siVEGF; format: in vivo, mice; settings: VEGF siRNA 5:1 N:P, 0.3 mg/mL, 30 μl intratumoral, 48 h after second injection
Procedure: as §1

[4] = one week after last of 6 intratumoral injections

Structure (SMILES): CCCCCCCC/C=C\CCCCCCCC(=O)NCCN(CCN)CCNC(=O)CCCCCCC/C=C\CCCCCCCC [dioleoyl monoamine, N,N′-dioleoyl tris(aminoethyl)amine]
- improvement in median survival relative to non-silencing control or untreated groups ([1]; VEGF siRNA intratumoral, 6 injections): 13%
- decrease in tumor volume relative to non-silencing siRNA [1, 4]: 31%
- decrease in tumor volume relative to untreated control animals [1, 4]: 57%
- knockdown of VEGF protein (VEGF protein): ~95%
- loaded siRNA released from alginate gel ([2]; with 0.1 M EDTA, after 84 hours): 100%
- loaded siRNA released from alginate gel ([2]; without EDTA (water), by 84 hours): < 20%
- Cav-1 transcript knockdown, livers [3]: 62%
- Cav-1 transcript knockdown, lungs [3]: 76%
- decrease in VEGF transcript relative to the non-silencing control group (VEGF transcript): 32%
